Measured values as given in publication PMC4620497 (Scientific Reports, 2015).

What was measured:
ERBB4 = biological target: T1, ERBB4 (Homo sapiens, UniProt Q15303); set-up: method as in earlier work; details: Table S1; cited from earlier work
T1 construct: purchased DiscoveRx KINOMEscan (Ambit Biosciences)

MAP3K3 = biological target: T2, MAP3K3 (Homo sapiens, UniProt Q99759); assay: KINOMEscan panel screen; type: binding; details: read-out: Percent Control(%)
T2 construct: purchased DiscoveRx KINOMEscan (Ambit Biosciences)

PRKCQ = biological target: T3, PRKCQ (Homo sapiens, UniProt Q04759); assay: KINOMEscan panel screen; type: binding; details: read-out: Percent Control(%)
T3 construct: purchased DiscoveRx KINOMEscan (Ambit Biosciences)

[1] = biological target: T4, EGFR(L747-E749del, A750P) (Homo sapiens, UniProt P00533, A750P/DEL747-749); assay: KINOMEscan panel screen; type: binding; details: read-out: Percent Control(%)
T4 construct: purchased DiscoveRx KINOMEscan (Ambit Biosciences)

PRKCH = biological target: T5, PRKCH (Homo sapiens, UniProt P24723); assay: KINOMEscan panel screen; type: binding; details: read-out: Percent Control(%)
T5 construct: purchased DiscoveRx KINOMEscan (Ambit Biosciences)

PHKG2 = biological target: T6, PHKG2 (Homo sapiens, UniProt P15735); assay: KINOMEscan panel screen; type: binding; details: read-out: Percent Control(%)
T6 construct: purchased DiscoveRx KINOMEscan (Ambit Biosciences)

AXL = biological target: T7, AXL (Homo sapiens, UniProt P30530); assay: KINOMEscan panel screen; type: binding; details: read-out: Percent Control(%)
T7 construct: purchased DiscoveRx KINOMEscan (Ambit Biosciences)

STK33 = biological target: T8, STK33 (Homo sapiens, UniProt Q9BYT3); assay: KINOMEscan panel screen; type: binding; details: read-out: Percent Control(%)
T8 construct: purchased DiscoveRx KINOMEscan (Ambit Biosciences)

ERK5 = biological target: T9, ERK5 (Homo sapiens, UniProt Q13164); assay: KINOMEscan panel screen; type: binding; details: read-out: Percent Control(%)
T9 construct: purchased DiscoveRx KINOMEscan (Ambit Biosciences)

DMPK = biological target: T10, DMPK (Homo sapiens, UniProt Q09013); assay: KINOMEscan kinase binding assay (Kd); details: Table S1
T10 construct: purchased DiscoveRx KINOMEscan (Ambit Biosciences)
T10 sequence (Q09013 1-629): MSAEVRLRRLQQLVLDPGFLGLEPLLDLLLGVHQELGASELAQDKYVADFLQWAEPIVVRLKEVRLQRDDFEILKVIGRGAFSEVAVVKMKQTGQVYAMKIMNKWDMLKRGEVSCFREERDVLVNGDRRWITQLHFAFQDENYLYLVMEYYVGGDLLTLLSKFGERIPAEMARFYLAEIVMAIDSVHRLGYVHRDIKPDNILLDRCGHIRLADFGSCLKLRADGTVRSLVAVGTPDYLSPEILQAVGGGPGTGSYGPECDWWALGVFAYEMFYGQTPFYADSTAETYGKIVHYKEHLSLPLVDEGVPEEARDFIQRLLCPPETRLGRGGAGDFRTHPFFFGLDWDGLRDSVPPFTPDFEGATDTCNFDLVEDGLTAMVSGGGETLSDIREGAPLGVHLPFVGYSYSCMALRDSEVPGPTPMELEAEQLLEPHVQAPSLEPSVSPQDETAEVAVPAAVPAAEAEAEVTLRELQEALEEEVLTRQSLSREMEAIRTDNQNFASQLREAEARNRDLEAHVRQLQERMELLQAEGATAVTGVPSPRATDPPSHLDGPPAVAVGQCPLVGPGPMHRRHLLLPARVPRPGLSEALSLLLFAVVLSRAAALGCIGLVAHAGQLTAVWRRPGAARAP
Text: In vitro KINOMEscan kinase binding assays (Ambit Biosciences) were employed to determine the binding affinity (Kd) of compounds[41][42].
compound 1. The y have very similar spectrum of activity in enz ymatic and cellular
levels. Both of them have the ability to inhibit Wnt/β -catenin si gnalin g. However, in […]

DCLK1 = biological target: T11, DCLK1 (Homo sapiens, UniProt O15075); assay: KINOMEscan kinase binding assay (Kd)
T11 construct: purchased Ambit Biosciences (KINOMEscan)

CSNK1G1 = biological target: T12, CSNK1G1 (Homo sapiens, UniProt Q9HCP0); assay: KINOMEscan panel screen; type: binding; details: read-out: Percent Control(%)
T12 construct: purchased DiscoveRx KINOMEscan (Ambit Biosciences)

SRPK3 = biological target: T13, SRPK3 (Homo sapiens, UniProt Q9UPE1); assay: KINOMEscan panel screen; type: binding; details: read-out: Percent Control(%)
T13 construct: purchased DiscoveRx KINOMEscan (Ambit Biosciences)

MYO3A = biological target: T14, MYO3A (Homo sapiens, UniProt Q8NEV4); assay: KINOMEscan panel screen; type: binding; details: read-out: Percent Control(%)
T14 construct: purchased DiscoveRx KINOMEscan (Ambit Biosciences)

MKNK2 = biological target: T15, MKNK2 (Homo sapiens, UniProt Q9HBH9); assay: KINOMEscan panel screen; type: binding; details: read-out: Percent Control(%)
T15 construct: purchased DiscoveRx KINOMEscan (Ambit Biosciences)

[2] = biological target: T16, RSK4(Kin.Dom.2-C-terminal) (Homo sapiens, UniProt Q9UK32); assay: KINOMEscan panel screen; type: binding; details: read-out: Percent Control(%)
T16 construct: RSK4(Kin.Dom.2-C-terminal); purchased DiscoveRx KINOMEscan (Ambit Biosciences)

PFPK5(P.falciparum) = biological target: T17, PFPK5(P.falciparum) (Plasmodium falciparum, UniProt P61075); assay: KINOMEscan panel screen; type: binding; details: read-out: Percent Control(%)
T17 construct: purchased DiscoveRx KINOMEscan (Ambit Biosciences)

LATS2 = biological target: T18, LATS2 (Homo sapiens, UniProt Q9NRM7); assay: KINOMEscan panel screen; type: binding; details: read-out: Percent Control(%)
T18 construct: purchased DiscoveRx KINOMEscan (Ambit Biosciences)

AKT3 = biological target: T19, AKT3 (Homo sapiens, UniProt Q9Y243); assay: KINOMEscan panel screen; type: binding; details: read-out: Percent Control(%)
T19 construct: purchased DiscoveRx KINOMEscan (Ambit Biosciences)

[3] = biological target: T20, RPS6KA4(Kin.Dom.2-C-terminal) (Homo sapiens, UniProt O75676); assay: KINOMEscan panel screen; type: binding; details: read-out: Percent Control(%)
T20 construct: RPS6KA4(Kin.Dom.2-C-terminal); purchased DiscoveRx KINOMEscan (Ambit Biosciences)

CDC2L2 = biological target: T21, CDC2L2 (Homo sapiens, UniProt Q9UQ88); assay: KINOMEscan panel screen; type: binding; details: read-out: Percent Control(%)
T21 construct: purchased DiscoveRx KINOMEscan (Ambit Biosciences)

ERK3 = biological target: T22, ERK3 (Homo sapiens, UniProt Q16659); assay: KINOMEscan panel screen; type: binding; details: read-out: Percent Control(%)
T22 construct: purchased DiscoveRx KINOMEscan (Ambit Biosciences)

T18 sequence (Q9NRM7 whole entry): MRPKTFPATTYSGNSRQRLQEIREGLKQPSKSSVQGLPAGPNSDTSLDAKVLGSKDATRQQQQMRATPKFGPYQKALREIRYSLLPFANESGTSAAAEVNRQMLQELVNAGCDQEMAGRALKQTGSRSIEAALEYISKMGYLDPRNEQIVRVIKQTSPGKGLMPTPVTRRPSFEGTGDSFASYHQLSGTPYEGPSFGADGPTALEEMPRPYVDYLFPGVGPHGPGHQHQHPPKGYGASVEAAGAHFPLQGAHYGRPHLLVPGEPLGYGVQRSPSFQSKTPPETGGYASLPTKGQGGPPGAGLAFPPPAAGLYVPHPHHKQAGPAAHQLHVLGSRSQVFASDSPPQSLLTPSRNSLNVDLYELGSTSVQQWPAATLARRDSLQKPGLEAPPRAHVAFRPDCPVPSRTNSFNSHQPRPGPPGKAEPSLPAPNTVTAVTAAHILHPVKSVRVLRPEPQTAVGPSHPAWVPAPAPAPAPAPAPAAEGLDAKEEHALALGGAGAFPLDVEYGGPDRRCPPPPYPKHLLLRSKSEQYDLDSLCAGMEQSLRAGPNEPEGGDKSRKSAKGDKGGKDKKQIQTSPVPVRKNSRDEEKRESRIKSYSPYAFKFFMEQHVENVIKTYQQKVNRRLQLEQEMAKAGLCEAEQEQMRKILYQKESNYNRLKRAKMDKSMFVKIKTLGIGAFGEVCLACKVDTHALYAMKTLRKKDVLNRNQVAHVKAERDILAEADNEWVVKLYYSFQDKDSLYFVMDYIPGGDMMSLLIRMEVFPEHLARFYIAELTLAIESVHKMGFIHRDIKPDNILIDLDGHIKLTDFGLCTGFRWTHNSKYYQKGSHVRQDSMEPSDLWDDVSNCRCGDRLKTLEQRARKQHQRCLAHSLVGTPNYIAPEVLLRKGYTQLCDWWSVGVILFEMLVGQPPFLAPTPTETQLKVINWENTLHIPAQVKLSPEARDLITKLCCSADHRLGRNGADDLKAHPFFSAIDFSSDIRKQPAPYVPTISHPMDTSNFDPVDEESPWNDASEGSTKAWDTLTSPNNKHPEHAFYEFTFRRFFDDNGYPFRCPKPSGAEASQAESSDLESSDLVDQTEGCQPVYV
T19 sequence (Q9Y243 whole entry): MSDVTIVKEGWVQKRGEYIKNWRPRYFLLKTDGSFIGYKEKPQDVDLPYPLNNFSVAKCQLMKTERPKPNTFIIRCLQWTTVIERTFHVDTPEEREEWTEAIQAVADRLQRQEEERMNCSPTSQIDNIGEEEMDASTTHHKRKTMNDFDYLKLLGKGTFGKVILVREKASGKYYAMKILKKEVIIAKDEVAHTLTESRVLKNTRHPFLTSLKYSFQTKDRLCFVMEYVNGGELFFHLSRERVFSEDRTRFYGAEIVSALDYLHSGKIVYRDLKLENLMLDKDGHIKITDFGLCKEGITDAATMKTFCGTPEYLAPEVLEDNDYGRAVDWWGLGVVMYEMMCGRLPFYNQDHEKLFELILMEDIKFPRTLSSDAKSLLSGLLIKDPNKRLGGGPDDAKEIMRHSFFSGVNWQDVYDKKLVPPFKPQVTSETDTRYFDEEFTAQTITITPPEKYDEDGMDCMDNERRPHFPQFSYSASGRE
T4 sequence (P00533 with tags, fused parts or gaps DEL747-749/A750P limits assumed): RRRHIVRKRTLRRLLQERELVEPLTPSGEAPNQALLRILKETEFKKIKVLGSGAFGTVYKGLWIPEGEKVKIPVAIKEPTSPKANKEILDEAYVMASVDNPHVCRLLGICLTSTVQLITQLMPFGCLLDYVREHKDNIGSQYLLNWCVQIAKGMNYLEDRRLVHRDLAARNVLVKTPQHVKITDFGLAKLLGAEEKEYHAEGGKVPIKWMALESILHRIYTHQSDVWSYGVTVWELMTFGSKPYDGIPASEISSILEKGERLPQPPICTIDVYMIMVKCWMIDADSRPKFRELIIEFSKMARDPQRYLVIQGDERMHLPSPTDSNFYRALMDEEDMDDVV
T2 sequence (Q99759 whole entry): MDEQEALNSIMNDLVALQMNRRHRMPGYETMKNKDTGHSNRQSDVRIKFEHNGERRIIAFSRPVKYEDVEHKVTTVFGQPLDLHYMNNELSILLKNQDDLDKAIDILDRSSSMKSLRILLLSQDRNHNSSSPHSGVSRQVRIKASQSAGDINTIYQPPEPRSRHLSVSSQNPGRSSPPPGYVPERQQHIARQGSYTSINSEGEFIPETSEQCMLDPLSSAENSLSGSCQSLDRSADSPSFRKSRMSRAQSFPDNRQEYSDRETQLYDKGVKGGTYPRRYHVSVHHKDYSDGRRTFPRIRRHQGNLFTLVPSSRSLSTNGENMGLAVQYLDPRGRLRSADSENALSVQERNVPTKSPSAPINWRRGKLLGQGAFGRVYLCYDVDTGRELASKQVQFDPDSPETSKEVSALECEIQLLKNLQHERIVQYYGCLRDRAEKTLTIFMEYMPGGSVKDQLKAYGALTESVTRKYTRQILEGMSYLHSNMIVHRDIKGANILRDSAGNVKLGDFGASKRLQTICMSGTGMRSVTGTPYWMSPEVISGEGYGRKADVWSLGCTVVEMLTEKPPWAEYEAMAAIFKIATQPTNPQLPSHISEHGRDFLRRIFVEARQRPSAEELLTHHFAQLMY
T9 sequence (Q13164 whole entry): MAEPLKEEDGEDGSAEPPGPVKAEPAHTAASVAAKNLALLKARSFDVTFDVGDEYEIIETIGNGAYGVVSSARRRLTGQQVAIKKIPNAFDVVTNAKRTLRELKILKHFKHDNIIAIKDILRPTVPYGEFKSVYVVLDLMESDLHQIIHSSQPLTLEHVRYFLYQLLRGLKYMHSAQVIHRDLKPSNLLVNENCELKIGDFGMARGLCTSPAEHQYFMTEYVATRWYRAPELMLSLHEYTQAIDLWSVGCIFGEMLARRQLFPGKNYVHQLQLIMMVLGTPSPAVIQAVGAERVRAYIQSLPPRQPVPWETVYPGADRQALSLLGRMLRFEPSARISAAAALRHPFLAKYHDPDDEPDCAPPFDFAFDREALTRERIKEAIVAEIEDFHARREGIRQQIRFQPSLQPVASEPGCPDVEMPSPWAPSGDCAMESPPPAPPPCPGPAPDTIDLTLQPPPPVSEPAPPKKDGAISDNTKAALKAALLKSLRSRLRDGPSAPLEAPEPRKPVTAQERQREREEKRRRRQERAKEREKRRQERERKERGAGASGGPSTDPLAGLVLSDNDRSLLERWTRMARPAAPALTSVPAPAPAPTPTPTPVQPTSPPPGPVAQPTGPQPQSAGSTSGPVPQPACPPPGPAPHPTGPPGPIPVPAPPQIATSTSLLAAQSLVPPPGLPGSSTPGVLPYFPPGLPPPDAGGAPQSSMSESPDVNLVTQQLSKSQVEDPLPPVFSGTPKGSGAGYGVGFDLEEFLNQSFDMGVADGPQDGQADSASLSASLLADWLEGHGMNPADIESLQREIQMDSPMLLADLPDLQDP
T3 sequence (Q04759 whole entry): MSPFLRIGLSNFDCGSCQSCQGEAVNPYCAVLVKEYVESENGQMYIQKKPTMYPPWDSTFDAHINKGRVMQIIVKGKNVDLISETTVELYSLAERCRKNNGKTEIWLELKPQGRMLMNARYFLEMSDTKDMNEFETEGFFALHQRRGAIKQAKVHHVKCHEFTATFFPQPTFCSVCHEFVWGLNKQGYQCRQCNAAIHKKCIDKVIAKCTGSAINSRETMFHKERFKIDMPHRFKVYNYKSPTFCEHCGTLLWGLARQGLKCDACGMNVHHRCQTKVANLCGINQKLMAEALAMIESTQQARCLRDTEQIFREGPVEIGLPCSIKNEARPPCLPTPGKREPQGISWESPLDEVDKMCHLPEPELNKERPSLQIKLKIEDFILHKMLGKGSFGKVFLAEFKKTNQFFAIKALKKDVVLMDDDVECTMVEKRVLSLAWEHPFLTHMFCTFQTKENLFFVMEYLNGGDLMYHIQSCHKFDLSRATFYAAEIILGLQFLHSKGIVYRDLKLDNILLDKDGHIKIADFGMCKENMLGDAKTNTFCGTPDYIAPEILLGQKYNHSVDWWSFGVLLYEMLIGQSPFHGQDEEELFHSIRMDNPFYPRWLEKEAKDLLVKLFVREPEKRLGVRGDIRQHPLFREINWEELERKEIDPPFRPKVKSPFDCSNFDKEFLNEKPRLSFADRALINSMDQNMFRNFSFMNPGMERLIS
T6 sequence (P15735 whole entry): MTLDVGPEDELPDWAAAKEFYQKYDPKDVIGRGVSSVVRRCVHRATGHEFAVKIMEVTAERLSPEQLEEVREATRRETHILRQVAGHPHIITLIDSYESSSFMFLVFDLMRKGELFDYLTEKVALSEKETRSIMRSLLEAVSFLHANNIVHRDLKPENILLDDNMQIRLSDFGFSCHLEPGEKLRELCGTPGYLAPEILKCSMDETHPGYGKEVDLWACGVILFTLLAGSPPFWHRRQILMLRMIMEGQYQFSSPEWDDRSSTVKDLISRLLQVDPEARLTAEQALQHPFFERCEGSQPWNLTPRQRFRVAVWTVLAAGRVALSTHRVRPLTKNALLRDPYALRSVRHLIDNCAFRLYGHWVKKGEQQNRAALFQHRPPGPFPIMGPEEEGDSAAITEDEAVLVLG
T17 sequence (P61075 whole entry): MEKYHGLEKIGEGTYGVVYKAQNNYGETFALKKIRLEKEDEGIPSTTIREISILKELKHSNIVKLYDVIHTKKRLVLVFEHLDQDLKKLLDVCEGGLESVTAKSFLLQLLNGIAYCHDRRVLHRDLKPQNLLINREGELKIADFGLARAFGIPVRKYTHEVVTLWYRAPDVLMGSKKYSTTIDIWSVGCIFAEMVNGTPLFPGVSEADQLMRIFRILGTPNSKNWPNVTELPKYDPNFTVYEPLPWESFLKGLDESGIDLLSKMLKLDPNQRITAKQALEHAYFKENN
T20 sequence (O75676 411-674 limits assumed): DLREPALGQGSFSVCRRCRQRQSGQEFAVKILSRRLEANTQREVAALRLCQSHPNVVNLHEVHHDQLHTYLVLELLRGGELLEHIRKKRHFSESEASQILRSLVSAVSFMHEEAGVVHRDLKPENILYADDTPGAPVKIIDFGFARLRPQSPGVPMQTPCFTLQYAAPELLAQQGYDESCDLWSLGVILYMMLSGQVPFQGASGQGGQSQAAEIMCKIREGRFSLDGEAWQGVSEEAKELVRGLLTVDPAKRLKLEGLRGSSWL

For `O=C(Nc1ccc(Oc2ncnc3[nH]ncc23)cc1)Nc1ccc(Cl)c(C(F)(F)F)c1` [Compound 1, 1-(4-(1H-pyrazolo[3,4-d]pyrimidin-4-yloxy)phenyl)-3-(4-chloro-3-(trifluoromethyl)phenyl)urea], the IC50 (ERBB4) is given as over 10 µM.
For `CC(C)(C)c1cc(NC(=O)Nc2ccc(Oc3ncnc4[nH]ncc34)c(F)c2)no1` [SKLB-677, 1-(4-(1H-pyrazolo[3,4-d]pyrimidin-4-yloxy)-3-fluorophenyl)-3-(5-tert-butylisoxazol-3-yl)urea], the remaining binding at 10 µM (MAP3K3) was 100%, the remaining binding at 10 µM (PRKCQ) was 50% and the remaining binding at 10 µM [1] was 19%. The remaining binding at 10 µM (PRKCH) was 100%, the remaining binding at 10 µM (PHKG2) was 100% and the remaining binding at 10 µM (AXL) was 3.8%. The remaining binding at 10 µM (STK33) was 0.05%, the remaining binding at 10 µM (ERK5) was 70% and the Kd (DMPK) was over 10 µM. It also gave a Kd (DCLK1) of over 10 µM, a remaining binding at 10 µM (CSNK1G1) of 86% and a remaining binding at 10 µM (SRPK3) of 71%. The remaining binding at 10 µM (MYO3A) was 11%, the remaining binding at 10 µM (MKNK2) was 1% and the remaining binding at 10 µM [2] was 72%. For the same compound, the remaining binding at 10 µM (PFPK5(P.falciparum)) was 100%, the remaining binding at 10 µM (LATS2) was 26% and the remaining binding at 10 µM (AKT3) was 100%. It also gave a remaining binding at 10 µM [3] of 78%, a remaining binding at 10 µM (CDC2L2) of 53% and a remaining binding at 10 µM (ERK3) of 79%.
